We go through six compounds from article PMC9036659, “Boron-containing capsaicinoids” (RSC Advances, 2021).

Converted amounts (≈) assume the structure as drawn. Read-outs that look alike come from different tables or passages of the source. Marks after values point to notes of the source that are not given here. Some results are limits rather than exact numbers.

A word on the IC50: it is the point on the concentration scale where inhibition reaches its midpoint. Broadly, the MIC90 is an inhibitory concentration at the 90% level, which refers to growth in some studies and to a panel of isolates in others.

Assay type in all cases: cell-based
The test system of series [1] is green monkey kidney cells Vero (ATCC CCL-81). Description: Cytotoxicity assay (Alamar blue), Vero. The note with it: for IC50: Chlorocebus sabaeus, Vero, read-out: IC50 Vero (normal cell line); for IC50 / IC50 Vero (normal cell line): 24 h incubation, average ± SD, Inactive = inhibition above 300 μM. The protocol:
(§1) The cells (human foreskin BJ fibroblast cells (ATCC CRL-2522), green monkey kidney cells Vero (ATCC CCL-81), human breast adenocarcinoma cells (ATCC HTB-26 MDA-MB 231), human breast adenocarcinoma cells (MCF7 ATCC HTB-22), and human colorectal carcinoma cells (HCT116 ATCC CCL-247)) were grown to 80% confluency, the cells were counted, diluted, and plated into treated 96-well cell culture plates. The BJ fibroblast and Vero cells were plated at a cell density of 10 000 cells per well and the HTB26, HCT116 and MCF7 cells were plated at cell density of 5000 cells per well in 90 μL of respective growth medium (without the addition of antibiotics) and incubated for 24 h to allow cells to adhere to the plates before treatment. Pure compounds were tested in triplicate in serial dilutions of seven concentrations ranging from 2 to 128 μg mL^−1 per well (final well volume of 100 μL, 1% DMSO per well). Each of the cell lines were incubated at 37 °C in a humidified atmosphere of 5% CO2; the BJ fibroblast and Vero cells for 24 h and the HTB-26, HCT116 and MCF7 cells for 72 h. Each plate contained four uninoculated positive controls, four untreated negative controls, and one column containing a concentration range for doxorubicin. Alamar blue was added, 24 h after the treatment, and fluorescence was monitored using a Cytation Gen 5 plate reader using 560 nm Ex/590 Em both at time zero and 4 h after Alamar blue addition. The inferred percentage of cell viability relative to vehicle control wells were calculated after subtracting the time zero emission 590 nm measurement from the final reading and the IC50 was determined. […]
(§2) Cytotoxicity Assay Data Alamar blue was added, 24 h after the treatment, and fluorescence was monitored using a Cytation Gen 5 plate reader using 560 nm Ex/590 Em both at time zero and 4 h after Alamar blue addition. The inferred percentage of cell viability relative to vehicle control wells were calculated after subtracting the time zero emission 590 nm measurement from the final reading and the IC50 was determined.
(Resazurin is reduced to fluorescent resorufin, in cell work by metabolically active cells.)

Series [2] deals with human foreskin BJ fibroblast cells (ATCC CRL-2522). Description: Cytotoxicity assay (Alamar blue), BJ. The note with it: for IC50: Homo sapiens, Fibroblast, read-out: IC50 BJ (normal cell line); for IC50 / IC50 BJ (normal cell line): 24 h incubation, average ± SD, Inactive = inhibition above 300 μM. The protocol: as §1, §2
In series [3] the test system is human breast adenocarcinoma cells (ATCC HTB-26 MDA-MB 231). Description: Cytotoxicity assay (Alamar blue), HTB-26. Particulars: for IC50: Homo sapiens, HTB26, 72 h incubation, average ± SD, Inactive = inhibition above 300 μM, read-out: IC50 HTB (cancer cell line). The protocol:
as §1, §2

Series [4] relates to human colorectal carcinoma cells (HCT116 ATCC CCL-247). In words: Cytotoxicity assay (Alamar blue), HCT116. Particulars: for IC50: Homo sapiens, HCT-116, 72 h incubation, average ± SD, Inactive = inhibition above 300 μM, read-out: IC50 HCT (cancer cell line). The method, then:
as §1, §2

Series [5] has as its system human breast adenocarcinoma cells (MCF7 ATCC HTB-22). In words: Cytotoxicity assay (Alamar blue), MCF7. Particulars: for IC50: Homo sapiens, MCF7, 72 h incubation, average ± SD, Inactive = inhibition above 300 μM, read-out: IC50 MCF7 (cancer cell line). The protocol:
as §1, §2

In series [6] the test system is methicillin-resistant Staphylococcus aureus MRSA 310. Description: Antimicrobial assay, MRSA (PrestoBlue fluorescence). The note with it: for MRSA MIC90 / IC50 / MIC90: 22 h; for IC50 / MIC90: Staphylococcus aureus, MRSA; for IC50: read-out: MRSA IC50; for MIC90: read-out: MRSA MIC90. The protocol: (§3) The microorganisms (methicillin-resistant S. aureus MRSA 310, vancomycin-resistant E. faecium VRE 379, S. warneri (ATCC 17917), P. vulgaris (ATCC 12454), P. aeruginosa (ATCC 14210), and C. albicans (ATCC 14035)) were grown overnight on agar media. The following day the cultures were transferred into 0.9% saline water into a sterile glass tube. Using the McFarland reader, the turbidity was determined and further diluted into their respective media. The pure compounds were tested at seven different concentrations ranging from 2 to 128 μg mL^−1 in triplicate. Samples were plated into 96 well plates (10 μL in 20% DMSO) and then diluted pathogen (90 μL) was pipetted into the pre-prepared sample plates yielding 5 × 10^5 cfu mL^−1 with a final volume of 100 μL. Antibiotics that are active against specific pathogens were used as positive controls. The plates were incubated into a 37 °C incubator for 22 h. Growth of S. warneri. P. vulgaris, P. aeruginosa and C. albicans were measured by reading optical density (OD600), or in the case of slow growing microorganisms (MRSA and VRE), PrestoBlue was used to assess metabolic activity by measuring fluorescence (535–560)/(590–615) (excitation/emission) using a Thermo Scientific Varioskan Flash plate reader at time zero and then again after incubation of the plates for 22 h at 37 °C. After subtracting the time zero OD600 from the final reading, the percentages of microorganism survival relative to vehicle control wells were calculated. […]
(§4) Antimicrobial Assay Data Growth of S. warneri. P. vulgaris, P. aeruginosa and C. albicans were measured by reading optical density (OD600), or in the case of slow growing microorganisms (MRSA and VRE), PrestoBlue was used to assess metabolic activity by measuring fluorescence (535-560)⁄(590-615) (excitation/emission) using a Thermo Scientific Varioskan Flash plate reader at time zero and then again after incubation of the plates for 22 h at 37 °C. After subtracting the time zero OD600 from the final reading, the percentages of microorganism survival relative to vehicle control wells were calculated. […]

Series [7] relates to Staphylococcus warneri (ATCC 17917). Description: Antimicrobial assay, S. warneri (OD600). The note with it: for IC50 / MIC90: Staphylococcus warneri; for IC50: read-out: S. warneri IC50; for MIC90: read-out: S. warneri MIC90. The method, then: as §3, §4
Series [8] concerns vancomycin-resistant Enterococcus faecium VRE 379. Description: Antimicrobial assay, VRE (PrestoBlue fluorescence). Particulars: for MIC90 / IC50 / VRE MIC90 / VRE IC50: 22 h, 37 °C, Inactive = inhibition above 300 μM; for IC50 / VRE IC50: average ± SD. The protocol:
as §3, §4

Setting [9] is: 37 °C, concentration for 90% growth inhibition, Inactive = inhibition above 300 μM.
Where [10] appears, read: 37 °C, average ± SD, Inactive = inhibition above 300 μM.
Where [11] appears, read: ATCC17917, 22 h, 37 °C, Inactive = inhibition above 300 μM.
Setting [12] is: ATCC17917, 22 h, 37 °C, average ± SD, Inactive = inhibition above 300 μM.

Turning to `COc1cccc2c1C(=O)c1c(O)c3c(c(O)c1C2=O)C[C@@](O)(C(=O)CO)C[C@@H]3O[C@H]1C[C@H](N)[C@H](O)[C@H](C)O1` [Doxorubicin, reference compound], the IC50 in series [1] was over 14.7 µM; in series [2], over 14.7 µM; in series [3], 0.4 ± 0.2 µM; in series [4], under 0.00012 µM; in series [5], 0.2 ± 0.2 µM.

As to `CN[C@H](CC(C)C)C(=O)N[C@H]1C(=O)N[C@@H](CC(N)=O)C(=O)N[C@H]2C(=O)N[C@H]3C(=O)N[C@H](C(=O)N[C@H](C(=O)O)c4cc(O)cc(O)c4-c4cc3ccc4O)[C@H](O)c3ccc(c(Cl)c3)Oc3cc2cc(c3O[C@@H]2O[C@H](CO)[C@@H](O)[C@H](O)[C@H]2O[C@H]2C[C@](C)(N)[C@H](O)[C@H](C)O2)Oc2ccc(cc2Cl)[C@H]1O` [Vancomycin, reference compound], the “MRSA MIC90” value in series [6] (setting [9]) was 1.4^a μM. Moreover, in series [6], the 50% inhibitory concentration (IC50) came out at 0.5 ± 0.1 µM and the MIC90 stood at 1.4 µM (≈ 2.03 µg/mL). In series [7] (ATCC17917, 22 h), the IC50 was 0.3 ± 0.1 µM and the MIC90 is 0.3 µM (≈ 0.435 µg/mL).

As to `CCCCCC(=O)N(Cc1ccc(OC)c(OC)c1)c1cccc(B2OC(C)(C)C(C)(C)O2)c1` [Compound 25, N-(3,4-dimethoxyphenylmethyl)-N-[3-(4,4,5,5-tetramethyl-1,3,2-dioxaborolan-2-yl)phenyl]-hexanamide], in series [6], the “antimicrobial activity against MRSA (in words)” value is “moderate activity”. Besides, the half-inhibitory concentration (IC50) in series [6] (setting [10]) was 70.6 ± 6.6 µM; in series [7] (setting [12]), 78.3 ± 39.8 µM; in series [3], 76.1 ± 3.4 µM; in series [8], 91.6 ± 6.8 µM; in series [4], 137 ± 12 µM; in series [5], 118 ± 19.5 µM. Further, the values for the MIC90 in series [6] (setting [9]), in series [7] (setting [11]) and in series [8] were 137 µM (≈ 64 µg/mL), 137 µM (≈ 64 µg/mL) and 274 µM (≈ 128 µg/mL), respectively. In addition, the “antimicrobial activity against S. warneri (in words)” value in series [7] is “moderate activity”. In series [1], the “IC50 Vero (normal cell line)” value is on record as “Inactive”. For the same compound, the “IC50 BJ (normal cell line)” value in series [2] was “Inactive”. Moreover, the “cytotoxic activity against HTB-26 MDA-MB 231 (in words)” value in series [3] is recorded as “selective but low to moderate activity”. Moreover, the “antimicrobial activity against VRE (in words)” value in series [8] was “moderate activity”. In addition, the “cytotoxic activity against HCT116 (in words)” value in series [4] is “selective but low to moderate activity”. In series [5], the “cytotoxic activity against MCF7 (in words)” value is given as “selective but low to moderate activity”.

On to `COc1ccc(CN(C(=O)CCCCB2OC(C)(C)C(C)(C)O2)c2ccccc2)cc1OC` [Compound 31, N-(3,4-dimethoxybenzyl)-N-phenyl-5-(4,4,5,5-tetramethyl-1,3,2-dioxaborolan-2-yl)pentanamide], for which the “antimicrobial activity against MRSA (in words)” value in series [6] was “low activity”. The “MRSA MIC90” value in series [6] (setting [9]) is given as “Inactive”. In series [6] (setting [10]), the concentration for half-maximal inhibition (IC50) amounted to 121 ± 2 µM. Moreover, the “antimicrobial activity against S. warneri (in words)” value in series [7] is reported as “low activity”. Moreover, in series [7] (setting [11]), the MIC90 worked out at 282 µM (≈ 128 µg/mL). For the same compound, the IC50 in series [7] (setting [12]) amounted to 135 ± 15.4 µM. The “IC50 Vero (normal cell line)” value in series [1] is recorded as “Inactive”. In addition, the “IC50 BJ (normal cell line)” value in series [2] is “Inactive”. In series [3], the “cytotoxic activity against HTB-26 MDA-MB 231 (in words)” value is “selective but low to moderate activity” and the IC50 was 58 ± 3.5 µM. Besides, in series [8], the “VRE MIC90” value is given as “Inactive” and the “VRE IC50” value is “Inactive”. In addition, in series [4], the “cytotoxic activity against HCT116 (in words)” value is recorded as “selective but low to moderate activity” and the half-maximal inhibitory concentration (IC50) is 126 ± 16.5 µM. For the same compound, in series [5], the “cytotoxic activity against MCF7 (in words)” value is “selective but low to moderate activity” and the IC50 amounted to 108 ± 30.9 µM.

`CCCCCCCCCC(=O)N(Cc1ccc(OC)c(OC)c1)c1cccc(B2OC(C)(C)C(C)(C)O2)c1` [Compound 26, N-(3,4-dimethoxyphenylmethyl)-N-[3-(4,4,5,5-tetramethyl-1,3,2-dioxaborolan-2-yl)phenyl]-decanamide]: in series [6], the “antimicrobial activity against MRSA (in words)” value is reported as “selectively active”. The IC50 in series [6] (setting [10]) was 13.2 µM. For the same compound, the MIC90 in series [6] (setting [9]) was 15.3 µM (≈ 8.01 µg/mL). The “S. warneri MIC90” value in series [7] (22 h, 37 °C, Inactive = inhibition above 300 μM) is “Inactive”. Further, the “S. warneri IC50” value in series [7] (22 h, 37 °C, average ± SD, Inactive = inhibition above 300 μM) is recorded as “Inactive”. Also, in series [1], the “cytotoxic activity against Vero (in words)” value was “unselective cytotoxic effects” and the half-inhibitory concentration (IC50) stood at 47.2 ± 6.7 µM. In series [2], the “cytotoxic activity against BJ (in words)” value is listed as “unselective cytotoxic effects” and the half-inhibitory concentration (IC50) was 38.6 ± 1 µM. Also, in series [3], the “cytotoxic activity against HTB-26 MDA-MB 231 (in words)” value is reported as “unselective cytotoxic effects” and the half-inhibitory concentration (IC50) stood at 31.5 ± 2.7 µM. In addition, in series [8], the “VRE MIC90” value is given as “Inactive” and the “VRE IC50” value is “Inactive”. Also, in series [4], the “cytotoxic activity against HCT116 (in words)” value is on record as “unselective cytotoxic effects” and the half-maximal inhibitory concentration (IC50) turned out to be 44.3 ± 10.5 µM. Further, in series [5], the “cytotoxic activity against MCF7 (in words)” value is “unselective cytotoxic effects” and the half-inhibitory concentration (IC50) turned out to be 35.7 ± 16.2 µM.

For `CO[C@H]1/C=C/O[C@@]2(C)Oc3c(C)c(O)c4c(O)c(c(/C=N/N5CCN(C)CC5)c(O)c4c3C2=O)NC(=O)/C(C)=C\C=C\[C@H](C)[C@H](O)[C@@H](C)[C@@H](O)[C@@H](C)[C@H](OC(C)=O)[C@@H]1C` [Rifampicin, reference compound], in series [8], the MIC90 stood at 2.4 µM (≈ 1.98 µg/mL) and the IC50 was determined as 1.2 ± 0.1 µM.
